Usually % inhibition stands for the drop in the measured response relative to a control, in per cent. Read a high % inhibition as a response far below the control. As usually defined, the IC50 is the midpoint of a concentration-inhibition curve.

Read-outs that look alike come from different tables or passages of the source.

The subject of experiment [1] is phospho-MerTK in BaF3.MerTK tumors. The experiment in a line: In vivo Ba/F3 pMER ALISA assay. Particulars: orally; for % inhibition: 50 milligrams per kilogram, single dose, tumors harvested 4 hours after, phospho-MerTK normalized to total MerTK; for % inhibition in the in vivo Ba/F3 pMer ALISA Assay: as shown in Tables 3 and 4: 50 milligrams per kilogram.
Procedure: BaF3.MerTK tumor cells were mixed with 50% Matrigel (BD, Franklin Lakes, NJ). […] Tumors were allocated into dose groups at 10 to 11 days post tumor cell inoculation, when they were roughly 250-400 mm^3 in size. Test compounds were formulated in 10% ethanol, 30% PEG-400, and 60% Phosal-50PG, for oral dosing at 0.2 mL per dose per mouse. Plasma and tumors were harvested 4 hours after a single dose. Ba/F3 tumors were harvested into 2 mL Precellys CKmix tubes, snap frozen in liquid nitrogen, and stored at −80° C. overnight. […] Precellys tubes were then centrifuged at >18,000 g for 20 minutes at 4° C. and the supernatant was collected on ice. The lysate was then centrifuged again at >18,000 g for 10 minutes at 4° C. to remove any residual debris. […] Plates were then frozen at −80° C. overnight.
Another experiment has as its target T1, human AXL (473-end) (Homo sapiens, UniProt P30530).
T1 construct: human AXL (473-end); purchased SignalChem, Canada
T1 sequence (P30530 473-894 limits assumed): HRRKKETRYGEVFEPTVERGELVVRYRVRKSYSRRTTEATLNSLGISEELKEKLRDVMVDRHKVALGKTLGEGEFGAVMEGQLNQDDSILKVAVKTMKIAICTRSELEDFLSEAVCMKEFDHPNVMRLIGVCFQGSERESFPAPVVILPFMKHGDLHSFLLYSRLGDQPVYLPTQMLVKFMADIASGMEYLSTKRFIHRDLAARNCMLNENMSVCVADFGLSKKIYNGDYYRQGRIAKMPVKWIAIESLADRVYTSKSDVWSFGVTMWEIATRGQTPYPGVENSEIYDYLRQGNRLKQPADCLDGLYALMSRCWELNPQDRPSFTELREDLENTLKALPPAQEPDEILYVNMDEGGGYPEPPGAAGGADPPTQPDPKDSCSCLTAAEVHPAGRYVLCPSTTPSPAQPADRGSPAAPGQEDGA
The experiment in a line: HTRF kinase activity biochemical assay, AXL.

Another experiment deals with T2, human TYRO3 (455-end) (Homo sapiens, UniProt Q06418).
T2 construct: TYRO3 (455-end); purchased SignalChem, Canada
T2 sequence (Q06418 455-890 limits assumed): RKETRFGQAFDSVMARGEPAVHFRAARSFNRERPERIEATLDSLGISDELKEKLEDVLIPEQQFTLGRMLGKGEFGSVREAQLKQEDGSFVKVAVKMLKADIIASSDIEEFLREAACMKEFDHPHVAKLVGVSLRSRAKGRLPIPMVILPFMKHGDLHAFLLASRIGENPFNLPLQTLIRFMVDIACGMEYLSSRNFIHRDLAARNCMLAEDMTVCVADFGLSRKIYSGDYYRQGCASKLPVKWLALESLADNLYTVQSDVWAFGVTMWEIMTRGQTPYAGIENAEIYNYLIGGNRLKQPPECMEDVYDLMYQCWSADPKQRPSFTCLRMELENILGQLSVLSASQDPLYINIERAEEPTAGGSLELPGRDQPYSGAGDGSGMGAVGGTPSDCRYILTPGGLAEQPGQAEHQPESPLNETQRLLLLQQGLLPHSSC
The experiment is described as follows: HTRF kinase activity biochemical assay, TYRO3. Particulars: 10 μM ATP, 30 minutes pre-incubation; read-out: HTRF TYRO IC50. In general terms: TR-FRET usually uses a lanthanide donor and a delayed reading to cut background.

The next experiment has as its target T3, human MER (528-end) (Homo sapiens, UniProt Q12866).
T3 construct: human MER (528-end); purchased Camnabio, Japan
T3 sequence (Q12866 528-999 limits assumed): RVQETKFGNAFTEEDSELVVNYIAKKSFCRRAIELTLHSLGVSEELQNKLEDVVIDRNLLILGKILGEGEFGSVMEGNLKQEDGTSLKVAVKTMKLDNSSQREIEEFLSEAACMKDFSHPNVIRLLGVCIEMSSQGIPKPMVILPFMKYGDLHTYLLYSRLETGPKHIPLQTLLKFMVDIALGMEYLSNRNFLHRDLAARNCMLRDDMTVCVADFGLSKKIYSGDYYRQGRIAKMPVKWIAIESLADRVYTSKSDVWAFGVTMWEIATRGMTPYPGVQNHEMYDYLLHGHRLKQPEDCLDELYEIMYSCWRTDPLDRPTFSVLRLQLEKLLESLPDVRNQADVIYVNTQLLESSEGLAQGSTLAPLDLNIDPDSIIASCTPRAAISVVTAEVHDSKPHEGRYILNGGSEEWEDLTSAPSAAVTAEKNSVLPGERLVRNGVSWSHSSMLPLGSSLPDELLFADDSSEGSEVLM
The experiment is described as follows: HTRF kinase activity biochemical assay, MER.

Where [2] appears, read: 10 μM ATP, 30 minutes pre-incubation.
The mark [3] stands for this setting: 10 μM ATP, 30 minutes pre-incubation, read-out: HTRF MERTK IC50.
Where [4] appears, read: in vitro, read-out: HTRF MerTK IC50.

In the case of `Nc1ncc(-c2ccc(F)nc2)cc1C(=O)N[C@H]1CCC[C@@H]1OCc1ccc(-c2ccc3c(c2)CC[C@@H]3N2CCN(CCO)CC2)cc1` [Example 46, 6-amino-6′-fluoro-N-{(1S,2S)-2-[(4-{(1S)-1-[4-(2-hydroxyethyl)piperazin-1-yl]-2,3-dihydro-1H-inden-5-yl}phenyl)methoxy]cyclopentyl}[3,3′-bipyridine]-5-carboxamide], in experiment [1], the “% inhibition” value is recorded as 37%. Also, the IC50 is less than 10 nM on human AXL (473-end) (setting [2]), 10 to 100 nM at human TYRO3 (455-end) and less than 10 nM at human MER (528-end) (setting [3]).
For `Cn1cc(-c2cnc(N)c(C(=O)N[C@H]3CCC[C@@H]3OCc3ccc(-c4ccc5c(c4)C(C)(C)CC5N4CCN(CCO)CC4)cc3)c2)cn1` (stereo partly drawn) [Example 83, 2-amino-N-{(1S,2S)-2-[(4-{1-[4-(2-hydroxyethyl)piperazin-1-yl]-3,3-dimethyl-2,3-dihydro-1H-inden-5-yl}phenyl)methoxy]cyclopentyl}-5-(1-methyl-1H-pyrazol-4-yl)pyridine-3-carboxamide], the “% inhibition” value in experiment [1] stood at 58%. Moreover, the “% inhibition in the in vivo Ba/F3 pMer ALISA Assay” value in experiment [1] is listed as 58%. The IC50 at human AXL (473-end) (setting [2]), against human AXL (473-end) (in vitro), on human TYRO3 (455-end), on human MER (528-end) (setting [3]) and on human MER (528-end) (setting [4]) was less than 10 nM throughout.
As for `CN1CCN(C2CC(C)(C)c3cc(-c4ccc(CO[C@H]5CCC[C@@H]5NC(=O)c5cc(-c6cnn(C)c6)cnc5N)cc4)ccc32)CC1` (stereo partly drawn) [Example 93, 2-amino-N-[(1S,2S)-2-({4-[3,3-dimethyl-1-(4-methylpiperazin-1-yl)-2,3-dihydro-1H-inden-5-yl]phenyl}methoxy)cyclopentyl]-5-(1-methyl-1H-pyrazol-4-yl)pyridine-3-carboxamide], the “% inhibition” value in experiment [1] stood at 53%. For the same compound, the IC50 against human AXL (473-end) (setting [2]), on human TYRO3 (455-end) and at human MER (528-end) (setting [3]) was less than 10 nM each time.
Regarding `Cn1cc(-c2cnc(N)c(C(=O)N[C@H]3CCC[C@@H]3OCc3ccc(-c4ccc5c(c4)C(C)(C)C[C@@H]5N4CCN(CCO)CC4)cc3)c2)cn1` [Example 103, 2-amino-N-{(1S,2S)-2-[(4-{(1S)-1-[4-(2-hydroxyethyl)piperazin-1-yl]-3,3-dimethyl-2,3-dihydro-1H-inden-5-yl}phenyl)methoxy]cyclopentyl}-5-(1-methyl-1H-pyrazol-4-yl)pyridine-3-carboxamide], the “% inhibition” value in experiment [1] is reported as 74%. The “% inhibition in the in vivo Ba/F3 pMer ALISA Assay” value in experiment [1] was 74%. The 50% inhibitory concentration (IC50) against human AXL (473-end) (setting [2]), against human AXL (473-end) (in vitro), at human TYRO3 (455-end), on human MER (528-end) (setting [3]) and on human MER (528-end) (setting [4]) was less than 10 nM each time.
As for `Nc1ncc(-c2ccc(F)nc2)cc1C(=O)N[C@H]1CCC[C@@H]1OCc1ccc(-c2ccc3c(c2)CC[C@@H]3N2CCN3C[C@H](O)C[C@H]3C2)cc1` [Example 117, 6-amino-6′-fluoro-N-{(1S,2S)-2-[(4-{(1S)-1-[(7R,8aS)-7-hydroxyhexahydropyrrolo[1,2-a]pyrazin-2 (1H)-yl]-2,3-dihydro-1H-inden-5-yl}phenyl)methoxy]cyclopentyl}[3,3′-bipyridine]-5-carboxamide], the “% inhibition” value in experiment [1] was determined as 64%. In addition, the half-inhibitory concentration (IC50) was less than 10 nM at human AXL (473-end) (setting [2]), 100 to 1000 nM on human TYRO3 (455-end) and less than 10 nM at human MER (528-end) (setting [3]).
As to `CN1CCN(C2CCCc3cc(-c4ccc(CO[C@H]5CCC[C@@H]5NC(=O)c5cc(-c6cnn(C)c6)cnc5N)cc4)ccc32)CC1` (stereo partly drawn) [Example 120, 2-amino-N-[(1S,2S)-2-({4-[5-(4-methylpiperazin-1-yl)-5,6,7,8-tetrahydronaphthalen-2-yl]phenyl}methoxy)cyclopentyl]-5-(1-methyl-1H-pyrazol-4-yl)pyridine-3-carboxamide], the “% inhibition” value in experiment [1] is on record as 67%. In addition, the 50% inhibitory concentration (IC50) against human AXL (473-end) (setting [2]) is less than 10 nM; on human TYRO3 (455-end), 10 to 100 nM; at human MER (528-end) (setting [3]) it was less than 10 nM.
Consider `CN1CCN([C@H]2CC(C)(C)c3cc(-c4ccc(CO[C@H]5CCC[C@@H]5NC(=O)c5cc(-c6cnn(C)c6)cnc5N)cc4)ccc32)CC1` [Example 144, 2-amino-N-[(1S,2S)-2-({4-[(1S)-3,3-dimethyl-1-(4-methylpiperazin-1-yl)-2,3-dihydro-1H-inden-5-yl]phenyl}methoxy)cyclopentyl]-5-(1-methyl-1H-pyrazol-4-yl)pyridine-3-carboxamide], for which, in experiment [1], the “% inhibition” value amounted to 93%. Further, the IC50 against human AXL (473-end) (setting [2]), on human TYRO3 (455-end) and on human MER (528-end) (setting [3]) was less than 10 nM throughout.
For `COc1ccc(-c2cnc(N)c(C(=O)N[C@H]3CCC[C@@H]3OCc3ccc(-c4ccc5c(c4)CC[C@@H]5N4CCN(CCO)CC4)cc3)c2)cn1` [Example 151, 6-amino-N-{(1S,2S)-2-[(4-{(1S)-1-[4-(2-hydroxyethyl)piperazin-1-yl]-2,3-dihydro-1H-inden-5-yl}phenyl)methoxy]cyclopentyl}-6′-methoxy[3,3′-bipyridine]-5-carboxamide], the “% inhibition” value in experiment [1] is 66%. Besides, the IC50 on human AXL (473-end) (setting [2]) was less than 10 nM; on human TYRO3 (455-end), 10 to 100 nM; on human MER (528-end) (setting [3]), less than 10 nM.
As to `CC1(C)C[C@H](N2CCN(CCO)CC2)c2ccc(-c3ccc(CO[C@H]4CCC[C@@H]4NC(=O)c4cc(-c5cccnc5F)cnc4N)cc3)cc21` [Example 159, 6-amino-2′-fluoro-N-{(1S,2S)-2-[(4-{(1S)-1-[4-(2-hydroxyethyl)piperazin-1-yl]-3,3-dimethyl-2,3-dihydro-1H-inden-5-yl}phenyl)methoxy]cyclopentyl}[3,3′-bipyridine]-5-carboxamide], in experiment [1], the “% inhibition” value was found to be 89%. Further, the values for the concentration for half-maximal inhibition (IC50) against human AXL (473-end) (setting [2]), at human TYRO3 (455-end) and on human MER (528-end) (setting [3]) were less than 10 nM, 10 to 100 nM and less than 10 nM, respectively.
`Nc1ncc(-c2cccnc2F)cc1C(=O)N[C@H]1CCC[C@@H]1OCc1ccc(-c2ccc3c(c2)CC[C@@H]3N2CCN3C[C@H](O)C[C@H]3C2)cc1` [Example 160, 6-amino-2′-fluoro-N-{(1S,2S)-2-[(4-{(1S)-1-[(7R,8aS)-7-hydroxyhexahydropyrrolo[1,2-a]pyrazin-2 (1H)-yl]-2,3-dihydro-1H-inden-5-yl}phenyl)methoxy]cyclopentyl}[3,3′-bipyridine]-5-carboxamide]: in experiment [1], the “% inhibition” value is 75%. The IC50 was less than 10 nM against human AXL (473-end) (setting [2]), 10 to 100 nM on human TYRO3 (455-end) and less than 10 nM at human MER (528-end) (setting [3]).
For `Cc1nc(-c2cnc(N)c(C(=O)N[C@H]3CCC[C@@H]3OCc3ccc(-c4ccc5c(c4)CC[C@@H]5N4CCN(CCO)CC4)cc3)c2)cs1` [Example 180, 2-amino-N-{(1S,2S)-2-[(4-{(1S)-1-[4-(2-hydroxyethyl)piperazin-1-yl]-2,3-dihydro-1H-inden-5-yl}phenyl)methoxy]cyclopentyl}-5-(2-methyl-1,3-thiazol-4-yl)pyridine-3-carboxamide], the IC50 at human AXL (473-end) (setting [2]) was less than 10 nM; at human TYRO3 (455-end), 10 to 100 nM; on human MER (528-end) (setting [3]) it was less than 10 nM.
Take `Cc1csc(-c2cnc(N)c(C(=O)N[C@H]3CCC[C@@H]3OCc3ccc(-c4ccc5c(c4)CC[C@@H]5N4CCN(CCO)CC4)cc3)c2)n1` [Example 181, 2-amino-N-{(1S,2S)-2-[(4-{(1S)-1-[4-(2-hydroxyethyl)piperazin-1-yl]-2,3-dihydro-1H-inden-5-yl}phenyl)methoxy]cyclopentyl}-5-(4-methyl-1,3-thiazol-2-yl)pyridine-3-carboxamide]: the IC50 against human AXL (473-end) (setting [2]) is less than 10 nM; on human TYRO3 (455-end), 10 to 100 nM; on human MER (528-end) (setting [3]) it was less than 10 nM.

These data come from US20260146035A1, “FUSED BICYCLIC COMPOUNDS AND THEIR USE AS MER AND AXL INHIBITORS” (DONG-A ST CO., LTD., priority 2022, published 2026).
